Results: US20070049564A1 (Wyeth, priority 2005, published 2007)
Values after ≈ are worked out from the molar mass of the structure shown. Where two headings read alike, the source gives them in different places.

Legend:
S. aureus GC 2216 = experiment: MIC, broth microdilution; settings: Staphylococcus aureus
E. coli GC 2231 = experiment: MIC, broth microdilution; settings: Escherichia coli
S. pneumoniae* GC 4465 = experiment: MIC, broth microdilution; settings: Streptococcus pneumoniae
E. faecalis GC 4555 = experiment: MIC, broth microdilution; settings: Enterococcus faecalis
E. faecalis GC 2242 = experiment: MIC, broth microdilution; settings: Enterococcus faecalis
E. faecalis GC 2267 = experiment: MIC, broth microdilution; settings: Enterococcus faecalis
Description: (§1) Antimicrobial susceptibility testing. The in vitro activities of the antibiotics are determined by the broth microdilution method as recommended by the National Committee for Clinical Laboratory Standards (NCCLS) (1). Mueller-Hinton II broth (MHBII)(BBL Cockeysville, Md.) is the medium employed in the testing procedures. Microtiter plates containing serial dilutions of each antimicrobial agent are inoculated with each organism to yield the appropriate density (10^5 CFU/ml) in a 100 μl final volume. The plates are incubated for 18-22 hours at 35° C. in ambient air.
(§2) Representative compounds were first incubated in mouse serum for an hour prior to the in vitro testing against a panel of selected gram-positive and gram-negative bacteria strains. All compounds were also pre-incubated in water for an hour prior to testing as control.

Staph. = experiment: Range of MIC for Staph. strains, including MRSA; settings: Staphylococcus aureus
S. aureus GC 4536 = experiment: MIC, broth microdilution; settings: Staphylococcus aureus
S. aureus GC 1131 = experiment: MIC, broth microdilution; settings: Staphylococcus aureus
S. epidermidis GC 4935 = experiment: MIC, broth microdilution; settings: Staphylococcus epidermidis
E. faecalis GC 2265 = experiment: MIC, broth microdilution; settings: Enterococcus faecalis
S. pneumoniae+ GC 4465 = experiment: MIC, broth microdilution; settings: Streptococcus pneumoniae
c. albicans GC 3066 = experiment: MIC, broth microdilution
E. faecium GC 2243 = experiment: MIC, broth microdilution; settings: Enterococcus faecium
E. coli GC 2236 = experiment: MIC, broth microdilution; settings: Escherichia coli
Description: Antimicrobial susceptibility testing. The in vitro activities of the antibiotics are determined by the broth microdilution method as recommended by the National Committee for Clinical Laboratory Standards (NCCLS) (1). Mueller-Hinton II broth (MHBII)(BBL Cockeysville, Md.) is the medium employed in the testing procedures. Microtiter plates containing serial dilutions of each antimicrobial agent are inoculated with each organism to yield the appropriate density (10^5 CFU/ml) in a 100 μl final volume. The plates are incubated for 18-22 hours at 35° C. in ambient air. […] Standard Pharmacological Test Procedures
Presented in Tables I-XIII are representative compounds of Formula I which were evaluated against a panel of 40 selected gram-positive and gram-negative bacteria strains by pre-incubation in water, mouse serum or human serum. Representative compounds were first incubated in mouse serum for an hour prior to the in vitro testing against a panel of selected gram-positive and gram-negative bacteria strains. All compounds were also pre-incubated in water for an hour prior to testing as control. Representative compounds of Formula I were incubated in human serum prior to MIC determination.

E. coli = experiment: Range of MIC for E. coli strains; settings: Escherichia coli
E. coli GC 2232 = experiment: MIC, broth microdilution; settings: Escherichia coli
P. aeruginosa GC 2214 = experiment: MIC, broth microdilution; settings: Pseudomonas aeruginosa
Description: as §1, §2

E. coli GC 2272 = experiment: MIC, broth microdilution; settings: Escherichia coli
Staph. aureus Smith = experiment: In vivo activity (oral, iv; ED50) against Staph. aureus Smith in mice
Description: Representative examples of compounds of Formula I were tested for the oral efficacy using S. aureus Smith in mice.

[1] = read-out: MINIMAL INHIBITORY CONCENTRATION MIC, Human Serum
[2] = read-out: MINIMAL INHIBITORY CONCENTRATION MIC, Mouse Serum
[3] = read-out: MINIMAL INHIBITORY CONCENTRATION MIC, Water

## CC(C)CC(=O)OCOC(=O)N(CC(=O)Nc1cc(N(C)C)c2c(c1O)C(=O)C1=C(O)[C@]3(O)C(=O)C(C(N)=O)=C(O)[C@@H](N(C)C)[C@@H]3C[C@@H]1C2)C(C)(C)C [Example 53, ({[(2-{[(5aR,6aS,7S,10aS)-9-(aminocarbonyl)-4,7-bis(dimethylamino)-1,8,10a,11-tetrahydroxy-10,12-dioxo-5,5a,6,6a,7,10,10a,12-octahydrotetracen-2-yl]amino}-2-oxoethyl)(tert-butyl)amino]carbonyl}oxy)methyl 3-methylbutanoate]
S. aureus GC 2216; GC2216, read-out: MINIMAL INHIBITORY CONCENTRATION MIC, Human Serum
  MIC: 0.5 µg/mL (≈ 0.672 µM)
S. aureus GC 2216; GC2216, read-out: MINIMAL INHIBITORY CONCENTRATION MIC, Mouse Serum
  MIC: 0.5 µg/mL (≈ 0.672 µM)
S. aureus GC 2216; GC2216, read-out: MINIMAL INHIBITORY CONCENTRATION MIC, Water
  MIC: 1 µg/mL (≈ 1.34 µM)
E. coli GC 2231; GC2231, read-out: MINIMAL INHIBITORY CONCENTRATION MIC, Human Serum
  MIC: 16 µg/mL (≈ 21.5 µM)
E. coli GC 2231; GC2231, read-out: MINIMAL INHIBITORY CONCENTRATION MIC, Mouse Serum
  MIC: 1 µg/mL (≈ 1.34 µM)
E. coli GC 2231; GC2231, read-out: MINIMAL INHIBITORY CONCENTRATION MIC, Water
  MIC: 64 µg/mL (≈ 86 µM)
S. pneumoniae* GC 4465; [1]
  MIC: 0.25 µg/mL (≈ 0.336 µM)
S. pneumoniae* GC 4465; [2]
  MIC: 0.12 µg/mL (≈ 0.161 µM)
S. pneumoniae* GC 4465; [3]
  MIC: 0.12 µg/mL (≈ 0.161 µM)
E. faecalis GC 4555; GC4555, read-out: MINIMAL INHIBITORY CONCENTRATION MIC, Human Serum
  MIC: 2 µg/mL (≈ 2.69 µM)
E. faecalis GC 4555; GC4555, read-out: MINIMAL INHIBITORY CONCENTRATION MIC, Mouse Serum
  MIC: 0.5 µg/mL (≈ 0.672 µM)
E. faecalis GC 4555; GC4555, read-out: MINIMAL INHIBITORY CONCENTRATION MIC, Water
  MIC: 2 µg/mL (≈ 2.69 µM)
E. faecalis GC 2242; GC2242, read-out: MINIMAL INHIBITORY CONCENTRATION MIC, Human Serum
  MIC: 2 µg/mL (≈ 2.69 µM)
E. faecalis GC 2242; GC2242, read-out: MINIMAL INHIBITORY CONCENTRATION MIC, Mouse Serum
  MIC: 0.5 µg/mL (≈ 0.672 µM)
E. faecalis GC 2242; GC2242, read-out: MINIMAL INHIBITORY CONCENTRATION MIC, Water
  MIC: 2 µg/mL (≈ 2.69 µM)
E. faecalis GC 2267; GC2267, read-out: MINIMAL INHIBITORY CONCENTRATION MIC, Human Serum
  MIC: 2 µg/mL (≈ 2.69 µM)
E. faecalis GC 2267; GC2267, read-out: MINIMAL INHIBITORY CONCENTRATION MIC, Mouse Serum
  MIC: 0.5 µg/mL (≈ 0.672 µM)
E. faecalis GC 2267; GC2267, read-out: MINIMAL INHIBITORY CONCENTRATION MIC, Water
  MIC: 4 µg/mL (≈ 5.38 µM)
Staph.; MRSA, read-out: Range of MIC, Staph (Mouse Serum)
  MIC: 0.25 to 1 µg/mL (≈ 0.336 to 1.34 µM)
Staph.; MRSA, read-out: Range of MIC, Staph (Water)
  MIC: 0.5 to 2 µg/mL (≈ 0.672 to 2.69 µM)
Staph.; read-out: Minimum inhibitory concentration (MIC), Staph (Human Serum)
  MIC: 0.5 to 2 µg/mL (≈ 0.672 to 2.69 µM)
Staph.; read-out: Minimum inhibitory concentration (MIC), Staph (Water)
  MIC: 0.5 to 2 µg/mL (≈ 0.672 to 2.69 µM)
S. aureus GC 4536; GC4536, read-out: MINIMAL INHIBITORY CONCENTRATION MIC, Human Serum
  MIC: 0.5 µg/mL (≈ 0.672 µM)
S. aureus GC 4536; GC4536, read-out: MINIMAL INHIBITORY CONCENTRATION MIC, Mouse Serum
  MIC: 0.25 µg/mL (≈ 0.336 µM)
S. aureus GC 4536; GC4536, read-out: MINIMAL INHIBITORY CONCENTRATION MIC, Water
  MIC: 1 µg/mL (≈ 1.34 µM)
S. aureus GC 1131; GC1131, read-out: MINIMAL INHIBITORY CONCENTRATION MIC, Human Serum
  MIC: 1 µg/mL (≈ 1.34 µM)
S. aureus GC 1131; GC1131, read-out: MINIMAL INHIBITORY CONCENTRATION MIC, Mouse Serum
  MIC: 1 µg/mL (≈ 1.34 µM)
S. aureus GC 1131; GC1131, read-out: MINIMAL INHIBITORY CONCENTRATION MIC, Water
  MIC: 1 µg/mL (≈ 1.34 µM)
S. epidermidis GC 4935; GC4935, read-out: MINIMAL INHIBITORY CONCENTRATION MIC, Human Serum
  MIC: 2 µg/mL (≈ 2.69 µM)
S. epidermidis GC 4935; GC4935, read-out: MINIMAL INHIBITORY CONCENTRATION MIC, Mouse Serum
  MIC: 1 µg/mL (≈ 1.34 µM)
S. epidermidis GC 4935; GC4935, read-out: MINIMAL INHIBITORY CONCENTRATION MIC, Water
  MIC: 2 µg/mL (≈ 2.69 µM)
E. faecalis GC 2265; GC2265, read-out: MINIMAL INHIBITORY CONCENTRATION MIC, Human Serum
  MIC: 0.5 µg/mL (≈ 0.672 µM)
E. faecalis GC 2265; GC2265, read-out: MINIMAL INHIBITORY CONCENTRATION MIC, Mouse Serum
  MIC: 1 µg/mL (≈ 1.34 µM)
E. faecalis GC 2265; GC2265, read-out: MINIMAL INHIBITORY CONCENTRATION MIC, Water
  MIC: 4 µg/mL (≈ 5.38 µM)
S. pneumoniae+ GC 4465; [1]
  MIC: 1 µg/mL (≈ 1.34 µM)
S. pneumoniae+ GC 4465; [2]
  MIC: 2 µg/mL (≈ 2.69 µM)
S. pneumoniae+ GC 4465; [3]
  MIC: 2 µg/mL (≈ 2.69 µM)
c. albicans GC 3066; Candida albicans, GC3066, read-out: MINIMAL INHIBITORY CONCENTRATION MIC
  MIC: > 64 µg/mL
c. albicans GC 3066; Human Serum
  MINIMAL INHIBITORY CONCENTRATION MIC: >64 UG/ML
c. albicans GC 3066; Mouse Serum
  MINIMAL INHIBITORY CONCENTRATION MIC: >64 UG/ML
E. faecium GC 2243; GC2243, read-out: MINIMAL INHIBITORY CONCENTRATION MIC, Human Serum
  MIC: 0.25 µg/mL (≈ 0.336 µM)
E. faecium GC 2243; GC2243, read-out: MINIMAL INHIBITORY CONCENTRATION MIC, Mouse Serum
  MIC: 0.25 µg/mL (≈ 0.336 µM)
E. faecium GC 2243; GC2243, read-out: MINIMAL INHIBITORY CONCENTRATION MIC, Water
  MIC: 0.5 µg/mL (≈ 0.672 µM)
E. coli GC 2236; GC2236, read-out: MINIMAL INHIBITORY CONCENTRATION MIC, Human Serum
  MIC: 16 µg/mL (≈ 21.5 µM)
E. coli GC 2236; GC2236, read-out: MINIMAL INHIBITORY CONCENTRATION MIC, Mouse Serum
  MIC: 1 µg/mL (≈ 1.34 µM)
E. coli GC 2236; GC2236, read-out: MINIMAL INHIBITORY CONCENTRATION MIC, Water
  MIC: 32 µg/mL (≈ 43 µM)
E. coli; 20 h, read-out: Range of MIC, E. coli (Mouse Serum)
  MIC: 0.25 to 1 µg/mL (≈ 0.336 to 1.34 µM)
E. coli; read-out: Minimum inhibitory concentration (MIC), E. coli (Human Serum)
  MIC: 8 to 16 µg/mL (≈ 10.8 to 21.5 µM)
E. coli; read-out: Minimum inhibitory concentration (MIC), E. coli (water)
  MIC: 16 to 64 µg/mL (≈ 21.5 to 86 µM)
E. coli; read-out: Range of MIC, E. coli (Water)
  MIC: 16 to 64 µg/mL (≈ 21.5 to 86 µM)
E. coli GC 2232; GC2232, read-out: MINIMAL INHIBITORY CONCENTRATION MIC, Human Serum
  MIC: 8 µg/mL (≈ 10.8 µM)
E. coli GC 2232; GC2232, read-out: MINIMAL INHIBITORY CONCENTRATION MIC, Mouse Serum
  MIC: 0.5 µg/mL (≈ 0.672 µM)
E. coli GC 2232; GC2232, read-out: MINIMAL INHIBITORY CONCENTRATION MIC, Water
  MIC: 32 µg/mL (≈ 43 µM)
P. aeruginosa GC 2214; GC2214, read-out: MINIMAL INHIBITORY CONCENTRATION MIC, Human Serum
  MIC: > 64 µg/mL
P. aeruginosa GC 2214; GC2214, read-out: MINIMAL INHIBITORY CONCENTRATION MIC, Mouse Serum
  MIC: 64 µg/mL (≈ 86 µM)
P. aeruginosa GC 2214; GC2214, read-out: MINIMAL INHIBITORY CONCENTRATION MIC, Water
  MIC: > 64 µg/mL
E. coli GC 2272; GC2272, read-out: MINIMAL INHIBITORY CONCENTRATION MIC, Human Serum
  MIC: 8 µg/mL (≈ 10.8 µM)
E. coli GC 2272; GC2272, read-out: MINIMAL INHIBITORY CONCENTRATION MIC, Mouse Serum
  MIC: 0.25 µg/mL (≈ 0.336 µM)
E. coli GC 2272; GC2272, read-out: MINIMAL INHIBITORY CONCENTRATION MIC, Water
  MIC: 16 µg/mL (≈ 21.5 µM)
Staph. aureus Smith; Staphylococcus aureus, in Mus musculus, iv, read-out: ED50 SIV (Staph aureus Smith)
  ED50: 0.73 mg/kg
Staph. aureus Smith; Staphylococcus aureus, in Mus musculus, po, read-out: ED50 SOD (Staph aureus Smith)
  ED50: 5.08 mg/kg
Staph. aureus Smith; Staphylococcus aureus, in Mus musculus, po, read-out: ED50 Staph Smith SOD
  ED50: 5.08 mg/kg
Staph. aureus Smith; iv, read-out: ED50 Staph Smith SIV
  ED50: 0.73 mg/kg
